Assay [1] has as its system caspase-3. The assay is described as follows: Caspase-3 activity (colorimetric, Ac-DEVD-pNA cleavage) after hypoxia. As to conditions: hypoxia 24 hours; 100 μM of agmatine or 50 μM of Z-VAD-FMK. It counts as cell-based, rat. The method, then:
The RGC-5 cell line, which is a RGC line developed from post-natal Sprague-Dawley rats, was grown in modified Dulbecco's Modified Eagle's Medium (DMEM; Gibco) supplemented with 10% of heat inactivated fetal bovine serum (Gibco) and 100 U/mL of penicillin and 100 μg/mL of streptomycin (Gibco). The cells were passaged every 2 to 3 days, and the cultures incubated at 37° C. in 5% of CO2 and air. […] For all experiments, cells were used at an 80% confluence. Cultures were transferred into a closed hypoxic chamber (Form a Scientific Co.) in which oxygen level (5% of O2, 5% of CO2, 90% of N2) and temperature (37° C.) were controlled. After washing twice with deoxygenated serum-free DMEM, cells were maintained in the hypoxic chamber. Control cells were not exposed to hypoxia. Agmatine or BDNF were added to the culture medium at the start of injury as indicated. Caspase-3 activity was measured using the CaspACE™ colorimetric assay system (Promega, Cat no. G7220) according to the manufacturer's instructions. Briefly, cells were harvested and resuspended in cell lysis buffer (10^8 cells/mL). […] After incubating at 37° C. for 4 hours, absorbance was measured using a microplate reader at 405 nm. Absorbance of each sample was determined by subtraction of the mean absorbance of the blank from that of each sample.

The subject of assay [2] is RGC-5. The assay is described as follows: LDH assay, TNF-α-induced cell death. Type of assay: cell-based, rat. The method, then: The RGC-5 cell line, which is an RGC line developed from post-natal Sprague-Dawley rats, was grown in modified DMEM (Gibco) supplemented with 10% of heat inactivated fetal bovine serum (Gibco) and 100 U/mL of penicillin and 100 μg/mL of streptomycin (Gibco). The cells were passaged every 2 to 3 days and incubated at 37° C. in 5% of CO2 and air. At cultivation, the cells had the same morphology. For all experiments, cells were used at 80% of confluence.
After washing twice with PBS, cells were cultured in serum-free DMEM and treated with either 10 or 50 ng/mL of recombinant rat TNF-α (Chemicon) for up to 48 hours. The control cells were not exposed to TNF-α. 100 μM of agmatine was added to the culture medium at the start of injury as indicated.
Cell viability was quantified by measuring the amounts of LDH released from the injured cells after TNF-α administration. LDH release is expressed as a value relative to the value of 100, which is the maximum LDH release that occurs after freezing each culture at −70° C. overnight and then rapidly thawing, thus inducing nearly complete cell damage. All experiments were performed in at least quadruplicate, and repeated at least eight times using cell cultures derived from different platings.

Where a SMILES comes first, the peptide text is derived from it. The star is where a group is joined. Cbz = O=C(OCc1ccccc1)*; CH2F = FC*

For `COC(=O)C[C@H](NC(=O)[C@H](C)NC(=O)[C@@H](NC(=O)OCc1ccccc1)C(C)C)C(=O)CF` [Z-VAD-FMK, reference compound] (Cbz-Val-Ala-Asp(OMe)-CH2F), the “hypoxia-induced caspase-3 activity” value in assay [1] is given as “equally suppressed”.
For TNF-α, the LDH release in assay [2] (10 ng/mL of TNF-α alone, 24 hours) was found to be 7.04±3.26%; in assay [2] (10 ng/mL of TNF-α alone, 48 hours), 10.16±1.77%; in assay [2] (50 ng/mL of TNF-α alone, 24 hours), 13.41±6.20%; in assay [2] (50 ng/mL of TNF-α alone, 48 hours) it was 17.00±1.92%.
